Active and inactive are the calls of the source. The rule behind the calls is not given here.
Assays:
[1] = biological target: T1, Cholecystokinin receptor type A (Cavia porcellus, UniProt Q63931); assay: Inhibitory activity towards binding of [125I]Bolton-Hunter-CCK-8 to CCKA receptor in guinea pig pancreatic tissue
T1 sequence (Q63931 whole entry): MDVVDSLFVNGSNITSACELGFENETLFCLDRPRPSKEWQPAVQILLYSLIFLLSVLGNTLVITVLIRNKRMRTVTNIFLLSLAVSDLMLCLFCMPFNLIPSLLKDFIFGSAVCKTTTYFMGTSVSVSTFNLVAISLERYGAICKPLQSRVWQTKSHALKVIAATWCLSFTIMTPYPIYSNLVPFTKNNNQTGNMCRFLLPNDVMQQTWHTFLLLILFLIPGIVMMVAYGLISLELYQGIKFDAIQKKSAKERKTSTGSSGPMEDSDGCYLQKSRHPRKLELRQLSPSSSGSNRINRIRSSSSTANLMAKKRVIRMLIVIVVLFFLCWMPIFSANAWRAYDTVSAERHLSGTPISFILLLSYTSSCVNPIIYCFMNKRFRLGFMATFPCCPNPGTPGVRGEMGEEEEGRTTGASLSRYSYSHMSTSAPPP

[2] = system: NCI-H345; assay: Ability to block CCK-8-induced calcium mobilization in NCI-H345 cells; format: functional, cell-based; settings: Homo sapiens
[3] = system: Mus musculus; assay: In vivo anxiolytic activity in mouse upon ip administration; significant activity; format: functional, organism-based
[4] = system: Mus musculus; assay: In vivo anxiolytic activity in mouse upon ip administration; less affinity and selectivity; format: functional, organism-based

Structure (SMILES) | IC50 [1] [µM] | other results
Cc1cccc(NC(=O)N[C@H](COC(=O)N2CCCC2)C(=O)N2CCC(C(=O)Nc3ccccc3)CC2)c1 | 0.25 | IC50 [2]: 0.115 µM; Activity [3]: Active
CC(Cc1c[nH]c2ccccc12)(NC(=O)OC1[C@H]2C[C@@H]3C[C@@H](C[C@H]1C3)C2)C(=O)N1CCC(C(=O)c2ccccc2)CC1 (stereo partly specified) | 1.7 | 
Cc1cccc(NC(=O)N[C@H](COC(=O)Nc2ccccc2)C(=O)N2CCC(C(=O)c3ccccc3)CC2)c1 | 0.29 | 
Cc1cccc(NC(=O)N[C@H](COCc2ccccc2)C(=O)N2CCC(C(=O)c3ccc(F)cc3)CC2)c1 | 0.42 | 
Cc1cccc(NC(=O)N[C@H](CC(=O)OCc2ccccc2)C(=O)N2CCC(C(=O)c3ccccc3)CC2)c1 | 1.3 | 
Cc1cccc(NC(=O)N[C@@H](C(=O)N2CCC(C(=O)c3ccccc3)CC2)[C@@H](C)OCc2ccccc2)c1 | 1.3 | 
CC(C)C[C@H](NC(=O)[C@H](Cc1c[nH]c2ccccc12)NC(=O)OC(C)(C)C)C(=O)N1CCC(C(=O)c2ccccc2)CC1 | 0.64 | 
Cc1cccc(NC(=O)N[C@H](COC(=O)N2CCOCC2)C(=O)N2CCC(C(=O)c3ccccc3)CC2)c1 | 1.5 | 
Cc1cccc(NC(=O)N[C@H](C[S+]([O-])Cc2ccccc2)C(=O)N2CCC(C(=O)c3ccccc3)CC2)c1 (stereo partly specified) | 0.8 | 
Cc1cccc(NC(=O)N[C@H](CCc2ccccc2)C(=O)N2CCC(C(=O)c3ccccc3)CC2)c1 | 2.2 | 
CCCC[C@@H](NC(=O)Nc1cccc(C)c1)C(=O)N1CCC(C(=O)c2ccccc2)CC1 | 2.5 | 
Cc1cccc(NC(=O)N[C@H](CCC(=O)OCc2ccccc2)C(=O)N2CCN(C(=O)c3ccccc3)CC2)c1 | 1.5 | 
Cc1cccc(NC(=O)N[C@H](CCC(=O)OCc2ccccc2)C(=O)N2CCC(NC(=O)c3ccccc3)CC2)c1 | 0.97 | 
CC(C)(C)OC(=O)N[C@@H](Cc1c[nH]c2ccccc12)C(=O)N1CCC(C(=O)c2ccccc2)CC1 | 4.5 | 
Cc1cccc(NC(=O)N[C@H](CCC(=O)OCc2ccccc2)C(=O)N2CCC(C(=O)c3ccccc3)CC2)c1 | 0.9 | 
Cc1cccc(NC(=O)N[C@H](COCc2ccccc2)C(=O)N2CCC(C(=O)c3ccccc3)CC2)c1 | 2.4 | 
Cc1cccc(NC(=O)N[C@H](CSCc2ccccc2)C(=O)N2CCC(C(=O)c3ccccc3)CC2)c1 | 1.3 | 
Cc1cccc(NC(=O)N[C@H](CC(C)C)C(=O)N2CCC(C(=O)c3ccccc3)CC2)c1 | 2 | 
CC1(C)C2CCC1(COC(=O)N[C@](C)(Cc1c[nH]c3ccccc13)C(=O)NC[C@@H](NC(=O)CCC(=O)O)c1ccccc1)CC2 |  | IC50 [2]: 0.002 µM; Activity [3]: significant activity
Cc1cccc(NC(=O)N[C@H](COCc2ccccc2)C(=O)N2CCC(C(=O)Nc3ccccc3)CC2)c1 | 0.5 | 
Cc1cccc(NC(=O)N[C@@H](CC(C)C)C(=O)N2CCC(C(=O)c3ccccc3)CC2)c1 | 5.2 | 
Cc1cccc(NC(=O)N[C@H](CCC(=O)O)C(=O)N2CCC(C(=O)c3ccccc3)CC2)c1 | 1.8 | 

Continued, in another order:

IC50 [1] [µM] | Structure (SMILES) | other results
1.9 | Cc1cccc(NC(=O)N[C@H](CCC(=O)N2CCCC2)C(=O)N2CCC(C(=O)c3ccccc3)CC2)c1 | IC50 [2]: 0.251 µM; Activity [4]: Weak activity
1.3 | Cc1cccc(NC(=O)N[C@H](COC(=O)N(C)C)C(=O)N2CCC(C(=O)c3ccccc3)CC2)c1 | 
> 2.1 | CC(C)C[C@H](NC(=O)OC(C)(C)C)C(=O)N1CCC(C(=O)c2ccccc2)CC1 | 
1.4 | Cc1cccc(NC(=O)N[C@H](COC(=O)N2CCCC2)C(=O)N2CCC(C(=O)c3ccccc3)CC2)c1 | IC50 [2]: 0.22 µM; Activity [3]: Active
1.3 | CC(=O)C1CCN(C(=O)[C@@H](COCc2ccccc2)NC(=O)Nc2cccc(C)c2)CC1 | 
2.2 | Cc1cccc(NC(=O)N[C@H](COCc2ccccc2)C(=O)N2CCCC(C(=O)Nc3ccccc3)C2)c1 (stereo partly specified) | 
1.4 | Cc1cccc(NC(=O)N[C@H](Cc2c[nH]c3ccccc23)C(=O)N2CCC(C(=O)c3ccccc3)CC2)c1 | 
0.2 | CC(C)C[C@H](NC(=O)[C@H](Cc1c[nH]c2ccccc12)NC(=O)OC(C)(C)C)C(=O)N1CCC(Cc2ccccc2)CC1 | 
1.8 | Cc1cccc(NC(=O)N[C@H](CCCc2ccccc2)C(=O)N2CCC(C(=O)c3ccccc3)CC2)c1 | 
3.4 | Cc1cccc(NC(=O)N[C@H](COCc2ccccc2)C(=O)N2CCC(Cc3ccccc3)CC2)c1 | 
0.69 | Cc1cccc(NC(=O)N[C@H](CCC(=O)OCc2ccccc2)C(=O)N2CCC(C(=O)Nc3ccccc3)CC2)c1 | 
1.1 | Cc1cccc(NC(=O)N[C@H](CS(=O)(=O)Cc2ccccc2)C(=O)N2CCC(C(=O)c3ccccc3)CC2)c1 | 

From ChEMBL document CHEMBL1128107, “Amino acid-derived piperidides as novel CCKB ligands with anxiolytic-like properties” (Bioorg Med Chem Lett, 1995)
